Like-named read-outs stand apart in the source and are kept apart here. Each block holds one molecule with its values, some of them ahead of it.
Assays:
[1] = PK study of paroxetine and prednisolone administered orally to humans; type: in vivo, human; settings: paroxetine/prednisolone combination PK study, oral
[2] = monotherapy, cited from earlier work
[3] = PK study of amoxapine and prednisolone administered orally to humans; settings: amoxapine/prednisolone combination PK study, oral

Mean Tmax ([1]; 20 mg): 7 h
Mean elimination half life ([1]; 20 mg): 20.2 h
SMILES: Fc1ccc([C@@H]2CCNC[C@H]2COc2ccc3c(c2)OCO3)cc1 [Paroxetine]

SMILES: OCCN(CCO)c1nc(N2CCCCC2)c2nc(N(CCO)CCO)nc(N3CCCCC3)c2n1 [Dipyridamole, 2,6-bis(diethanolamino)-4,8-dipiperidinopyrimido(5,4-d)pyrimidine]
Mean Tmax ([2]; oral, 25 mg): 0.75 h
Mean elimination half life ([2]; oral, 25 mg): 10 h

Mean Tmax ([1]; 3 mg): 1.9 h
Mean elimination half life ([1]; 3 mg): 2.7 h
Mean Tmax ([3]; 3 mg): 1.9 h
Mean elimination half life ([3]; 3 mg): 4.5 h
SMILES: C[C@]12C=CC(=O)C=C1CC[C@@H]1[C@@H]2[C@@H](O)C[C@@]2(C)[C@H]1CC[C@]2(O)C(=O)CO [Prednisolone]
Mean Tmax ([2]; oral, 3 mg): 1.9 h
Mean elimination half life ([2]; oral, 3 mg): 2.7 h

SMILES: CCCC1O[C@@H]2C[C@H]3[C@@H]4CCC5=CC(=O)C=C[C@]5(C)[C@H]4[C@@H](O)C[C@]3(C)[C@]2(C(=O)CO)O1 (stereo partly shown) [Budesonide]
Mean Tmax ([2]; inhaled, 200 μg): 0.5 h
Mean elimination half life (Hours) ([2]; inhaled, 200 μg): ca. 2 Hours

SMILES: CNCCC=C1c2ccccc2CCc2ccccc21 [Nortriptyline]
Mean Tmax ([2]; oral, 25 mg): 8 h
Mean elimination half life ([2]; oral, 25 mg): 16 h

Mean Tmax ([3]; 100 mg): 2.4 h
Mean elimination half life ([3]; 100 mg): 9.7 h
SMILES: Clc1ccc2c(c1)C(N1CCNCC1)=Nc1ccccc1O2 [Amoxapine]
